Here are results for one compound from patent US6270780A, “Cosmetic compositions containing resveratrol” (Chesebrough-Pond's USA Co., division of Conopco, priority 1998, dated 2001).

Like-named read-outs stand apart in the source and are kept apart here.

This assay has as its system ZR75 cells. In words: 3H-thymidine incorporation (DNA synthesis) / proliferation of ZR75 cells, estrogen-like activity. Type of assay: cell-based, human. The conditions noted are these: for activity at 0.001 µM / activity at 0.01 µM / activity at 0.1 µM / activity at 1 µM: Homo sapiens, control water; for activity at 0.001 µM: 1 nM; for activity at 0.01 µM: 10 nM; for activity at 0.1 µM: 100 nM; for activity at 1 µM: 1000 nM, read-out: DNA synthesis (% of Control). From the text:
The following test was employed to determine whether resveratrol has an estrogen-like activity:
The ZR75 cell line is a ductal breast carcinoma cell line, originally isolated from malignant mammary epithelium of a person (Engel et al., Human breast carcinoma cells in continuous culture: A review., Cancer Res., 38: 4327-4339, 1978). This cell line contains receptors for estrogen, progesterone and other steroid hormones, but responds through an increase in proliferation only to estrogen. The cell line contains high affinity estrogen-specific receptors. Therefore, this cell line is used for testing estrogen-like activity (Markiewicz et al., In vitro bioassays of non-steroidal phytoestrogens, J. Steroid Biochem. Molec. Biol., 45: 399-405, 1993)
Methodology Used for Determining the Rate of DNA Synthesis in Cells
The incorporation of ^3 H-thymidine by cultured cells was used as an assay of cell proliferation (both for ZR75 cells and for keratinocytes). Thymidine is one of four deoxynucleosides which are the monomeric units of DNA. Prior to cell division of a somatic cell, the complete genome of the cell undergoing cell division is replicated. This involves large scale DNA synthesis by the cell and enables both daughter cells to receive identical copies of the genetic material. When ^3 H-thymidine is included in the culture media of cells which are synthesizing DNA in preparation for cell division then the labeled thymidine is incorporated into the newly synthesized DNA. The extent of incorporation of ^3 H-thymidine into a population of cells is proportional to the rate of DNA synthesis by this population of cells and therefore an indication of their cellular proliferation.
ZR75 cells (from American Type Culture Collection, Rockville, Md.) were grown in RPMI1640 media (from Gibco Life Technologies) with 10% fetal bovine serum (FBS) , 100 units penicillin per ml and 100 units of streptomycin per ml. All incubations were performed at 37° C. in 5% CO2. […] The cells were seeded at a density of one million per 75 cm2 flask. For the experiment, the cells were seeded in 24 well plates at 100,000 cells per ml per well.
After growing for 24 hours, the media was removed, the cells were washed with PBS (phosphate buffered saline, 0.01 M sodium phosphate, 0.138 M sodium chloride, 0.0027 M potassium chloride, pH 7.4) and 1 ml of RPMI 1640 without serum (but with streptomycin and penicillin) was added. Stock solutions of resveratrol in dimethyl sulfoxide (DMSO) and estradiol in water were prepared. […] After another 24 hours, one μCi of [methyl-3H] thymidine was added to each well. The media was removed after 24 hours. The cells were washed once in PBS, the PBS was removed completely and the cells were left on ice to incubate with 1 ml per well of 10% TCA (trichloroacetic acid) for 30 minutes. The plates were washed 3 times with 5% TCA to remove all traces of thymidine which wasn't incorporated into the cells. 500 μl of 0.1M sodium hydroxide was added to each well and the plates were incubated at room temperature for at least 30 minutes. 250 μl of each sample was transferred to scintillation vials and after adding 5 mL of counting fluid, the vials were counted for 5 minutes each on a setting for tritium. […] Values were expressed as mean of quadruplicate wells +/- standard deviation.
In general terms: Uptake of a labelled nucleoside into DNA is a usual measure of proliferation.

Turning to `C[C@]12CC[C@@H]3c4ccc(O)cc4CC[C@H]3[C@@H]1CC[C@@H]2O` [Estradiol, estradiol, reference compound], where the note is “ZR75, EXPT 1”, the activity at 0.001 µM was determined as 220 ± 11%, the activity at 0.01 µM was 210 ± 9.7%, the activity at 0.1 µM was found to be 205 ± 15.6% and the activity at 1 µM was 190 ± 24.5%. In addition, for the setting “ZR75, EXPT 2”, the activity at 0.001 µM came out at 133 ± 29%, the activity at 0.01 µM came out at 152 ± 17.7%, the activity at 0.1 µM was 156 ± 11.7% and the activity at 1 µM stood at 142 ± 18.3%. Further, the “proliferation of ZR 75 cells” value (Table 1 summary) is recorded as “stimulated proliferation of ZR 75 cells”.
